Assay results published in patent publication US9988430B2, “Stable GLP-1 based GLP-1/glucagon receptor co-agonists” (Novo Nordisk A/S, priority 2014, dated 2018).
pIC50: −log10 of the molar value. *1 amine or outer side, *2 acyl side, *3 side chain or, on linkers, in order; H or OH if unused. Where a SMILES comes first, the peptide text is derived from it. Side-chain parts run from the residue outwards. [ ]: non-standard residue; d: D form. The star is where a group is joined. C18 diacid = O=C(O)CCCCCCCCCCCCCCCCC(=O)*; γGlu = O=C(O)[C@H](CCC(=O)[*:2])N[*:1]; Desaminohistidyl = O=C(CCc1c[nH]cn1)*; AEEA = NCCOCCOCC(=O)O; Aib = CC(C)(N)C(=O)O

How the values were obtained:
[1] = target: T1, human GLP-1 receptor (Homo sapiens, UniProt P43220); assay: Assay (II)(a): GLP-1 receptor binding, [125I]GLP-1 displacement, SPA on BHK membranes; conditions: displacement of [125I]GLP-1, membranes with human GLP-1 receptor; read-out: IC50 GLP-1R
T1 construct: expressed in transfected cells; host or cells: membranes of BHK cells, parent line BHKTS13, clone FCW467-12A
How it was run: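 Membranes from BHK cells expressing human GLP-1 receptor with WGA SPA beads, [125I]GLP-1(7-36)NH2 (480 pM added solution) and compound in HEPES pH 7.4 buffer with EGTA, MgCl2, Tween 20. Incubated 2 h at 30° C; SPA counts fitted by non-linear regression to IC50 in nM.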

[2] = Assay (V): chemical stability assessment by RP-UPLC; format: physicochemical; conditions: 14 days at 37° C. in phosphate buffer (pH 7.3)
How it was run: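 Lyophilized peptide dissolved in 8 mM phosphate pH 8.6, adjusted to pH 7.3, final 333 μM, held 14 days at 5° C and 37° C. Purity is main-peak area % by RP-UPLC with UV detection at 215 nm. Degradation is the 5° C minus 37° C purity difference divided by the 5° C purity.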

T1 sequence (P43220 24-463): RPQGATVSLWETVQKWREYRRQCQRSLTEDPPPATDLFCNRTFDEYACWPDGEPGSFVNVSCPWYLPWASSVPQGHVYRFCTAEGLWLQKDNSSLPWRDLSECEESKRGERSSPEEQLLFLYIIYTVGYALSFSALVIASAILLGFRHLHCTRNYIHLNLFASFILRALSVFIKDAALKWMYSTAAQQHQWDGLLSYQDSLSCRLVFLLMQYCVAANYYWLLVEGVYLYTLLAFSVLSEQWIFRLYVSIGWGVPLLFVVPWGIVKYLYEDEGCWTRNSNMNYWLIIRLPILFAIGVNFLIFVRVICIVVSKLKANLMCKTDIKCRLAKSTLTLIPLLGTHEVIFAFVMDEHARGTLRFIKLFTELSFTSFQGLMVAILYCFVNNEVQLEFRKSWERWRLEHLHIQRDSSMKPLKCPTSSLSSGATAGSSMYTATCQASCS

| pIC50 [1] | Chemical stability: Chemical degradation over 14 days at 37° C. [2] [%] | SMILES |
| --- | --- | --- |
| 9.70 | 0.2 | CC[C@H](C)[C@H](NC(=O)[C@H](Cc1ccccc1)NC(=O)[C@H](CCC(=O)O)NC(=O)[C@H](CCCNC(=N)N)NC(=O)[C@H](C)NC(=O)[C@H](C)NC(=O)[C@H](CCC(N)=O)NC(=O)[C@H](CCC(=O)O)NC(=O)[C@H](CCC(=O)O)NC(=O)[C@H](CC(C)C)NC(=O)[C@H](Cc1ccc(O)cc1)NC(=O)[C@H](CCCCN)NC(=O)[C@H](CO)NC(=O)[C@@H](NC(=O)[C@H](CC(=O)O)NC(=O)[C@H](CO)NC(=O)[C@@H](NC(=O)[C@H](Cc1ccccc1)NC(=O)[C@@H](NC(=O)CNC(=O)[C@H](Cc1c[nH]cn1)NC(=O)C(C)(C)NC(=O)CCc1c[nH]cn1)[C@@H](C)O)[C@@H](C)O)C(C)C)C(=O)N[C@@H](C)C(=O)N[C@@H](Cc1c[nH]c2ccccc12)C(=O)N[C@@H](CC(C)C)C(=O)N[C@@H](CC(C)C)C(=O)N[C@@H](CCCCNC(=O)CNC(=O)[C@H](CO)NC(=O)CC[C@H](NC(=O)CC[C@H](NC(=O)CCCCCCCCCCCCCCCCC(=O)O)C(=O)O)C(=O)O)C(=O)N[C@H](C(N)=O)[C@@H](C)O [Example 4, N^ε34-[2-[[(2S)-2-[[(4S)-4-carboxy-4-[[(4S)-4-carboxy-4-(17-carboxyheptadecanoylamino)butanoyl]amino]butanoyl]amino]-3-hydroxypropanoyl]amino]acetyl]-[Imp7,Aib8,His9,Lys18,Glu22,Arg26,Leu33,Thr35]-GLP-1-(7-35)-peptide amide] (Desaminohistidyl-[Aib]HGTFTSDVSKYLEEQAAREFIAWLLK([Gly-Ser-γGlu-γGlu-C18 diacid])T-NH2) |
| 9.52 | 0.1 | CC[C@H](C)[C@H](NC(=O)[C@H](Cc1ccccc1)NC(=O)[C@H](CCC(=O)O)NC(=O)[C@H](CCCNC(=N)N)NC(=O)[C@H](C)NC(=O)[C@H](C)NC(=O)[C@H](CCCNC(=N)N)NC(=O)[C@H](C)NC(=O)[C@H](CCC(=O)O)NC(=O)[C@H](CC(C)C)NC(=O)[C@H](Cc1ccc(O)cc1)NC(=O)[C@H](CCCCN)NC(=O)[C@H](CO)NC(=O)[C@@H](NC(=O)[C@H](CC(=O)O)NC(=O)[C@H](CO)NC(=O)[C@@H](NC(=O)[C@H](Cc1ccccc1)NC(=O)[C@@H](NC(=O)CNC(=O)[C@H](Cc1c[nH]cn1)NC(=O)C(C)(C)NC(=O)CCc1c[nH]cn1)[C@@H](C)O)[C@@H](C)O)C(C)C)C(=O)N[C@@H](C)C(=O)N[C@@H](Cc1c[nH]c2ccccc12)C(=O)N[C@@H](CC(C)C)C(=O)N[C@@H](CC(C)C)C(=O)N[C@@H](CCCCNC(=O)CC[C@H](NC(=O)COCCOCCNC(=O)COCCOCCNC(=O)CC[C@H](NC(=O)CC[C@H](NC(=O)CCCCCCCCCCCCCCCCC(=O)O)C(=O)O)C(=O)O)C(=O)O)C(=O)NCC(=O)NCC(=O)NCC(=O)O [Example 31, N^ε34-[(4S)-4-carboxy-4-[[2-[2-[2-[[2-[2-[2-[[(4S)-4-carboxy-4-[[(4S)-4-carboxy-4-(17-carboxyheptadecanoylamino)butanoyl]amino]butanoyl]amino]ethoxy]ethoxy]acetyl]amino]ethoxy]ethoxy]acetyl]amino]butanoyl]-[Imp7,Aib8,His9,Lys18,Ala22,Arg23,Arg26,Leu33,Gly36]-GLP-1-(7-37)-peptide] (Desaminohistidyl-[Aib]HGTFTSDVSKYLEARAAREFIAWLLK([γGlu-AEEA-AEEA-γGlu-γGlu-C18 diacid])GGG-OH) |
